For assay [1], the system named is amphetamine-induced symptoms (cage movement) in rats. The experiment in a line: Antagonism of amphetamine stereotypy in rats. It counts as in vivo, rat. The settings on record: for ED50: Rattus norvegicus; for ED50 (micrograms/kilograms) 1 Hr. / ED50 (mg./kg.) 1 Hr.: 60 min; for ED50 (micrograms/kilograms) 5 Hrs. / ED50 (mg./kg.) 5 Hrs.: 300 min; for ED50 (micrograms/kilograms) 24 Hrs. / ED50 (mg./kg.) 24 Hrs.: 1440 min; for ED50 (mg./kg.) 1 Hr. / ED50 (mg./kg.) 5 Hrs. / ED50 (mg./kg.) 24 Hrs. / ED50 (mg./kg.) 72 Hrs. / ED50 (mg./kg.) 48 Hrs.: Part D, enantiomers from Example 21; for ED50 (mg./kg.) 72 Hrs.: 4320 min; for ED50 (mg./kg.) 48 Hrs.: 2880 min. The protocol: Antagonism of Amphetamine Stereotypy in Rats Test Procedures and Results
The effects of the compounds of the present invention on prominent amphetamine-induced symptoms were studied in rats by a rating scale modeled after the one reported by Quinton and Halliwell, and Weissman. Groups of five rats were placed in a covered plastic cage measuring approximately 26 cm.×42 cm.×16 cm. […] They were then treated 1, 5 and 24 hrs. later with d-amphetamine sulfate, 5 mg./kg. intraperitoneally (i.p.). […] On the basis of dose-response data after amphetamine it was possible to determine the effective dose of the compound necessary to antagonize or block the characteristic amphetamine behavior of cage movement for fifty percent of the rats tested (ED50). The time of rating chosen coincides with the peak action of amphetamine which is 60-80 min. after treatment with this agent.
Employing the above-described procedure, the following 4a,9b-trans compounds were tested for their ability to block the behavior effects of amphetamine, the results being reported as the ED50 in mg./kg. at the indicated times: [drawing 31]
A. The following results were obtained on the mixture of diastereomers for those compounds wherein R contains a secondary alcohol group and on the single diastereomer of the other 4a, 9b-trans hexahydro-pyrido-indoles.
B. The results of tests in which compounds of the invention reported in Part A, above are compared with the corresponding δ-substituted-5-aryl-1,2,3,4-tetrahydropyrido[4,3-b]indoles of U.S. Pat. No. 4,001,263 are summarized below. For each pair the results obtained on the prior art compound (a) are given first and the results for the compound of the invention (b) are given second. Where indicated the test compound was also administered orally (p.o.) and tests were carried out for 48 hours.
C. Test results expressed as micrograms/kilograms, obtained on the diastereomers αβ and γδ separated in Example 13 and each of the enantiomers α, β, γ and δ resolved by the procedure of Example 14 are shown below. In each case the compounds are of the formula
The tests were carried out for 72 hours.

In the next assay the target is dopamine receptors (Rattus norvegicus, UniProt P61169). The experiment in a line: Inhibition of 3H-spiroperidol binding to dopamine receptors. On the set-up: species or system rat (Sprague-Dawley CD males). The settings on record: rat corpus striatum; 0.5 nM 3H-spiroperidol; 10 min at 37° C.; hydrochloride salts.
The mark [2] stands for this setting: sc, 1 h, Part A, 1 hr, test compound s.c. (method), read-out: ED50 (mg./kg.) 1 Hr.
The mark [3] stands for this setting: sc, 5 h, Part A, 5 hr, test compound s.c. (method), read-out: ED50 (mg./kg.) 5 Hr.
[4] abbreviates: sc, 24 h, Part A, 24 hrs, test compound s.c. (method), read-out: ED50 (mg./kg.) 24 Hrs.
Where [5] appears, read: ip, 1 h, Part B, 1 hr, i.p., read-out: ED50 (mg./kg.) 1 Hr.
[6] abbreviates: ip, 5 h, Part B, 5 hrs, i.p., read-out: ED50 (mg./kg.) 5 Hrs.
Setting [7] is: ip, 24 h, Part B, 24 hrs, i.p., read-out: ED50 (mg./kg.) 24 Hrs.
The mark [8] stands for this setting: sc, 1 h, read-out: ED50 (mg./kg.) 1 Hr.
[9] abbreviates: sc, 5 h, read-out: ED50 (mg./kg.) 5 Hr.

The values that follow come from US4252812A, “2-Substituted-trans-5-ar yl-2,3,4,4a,5,9b-hexahydro-1H-pyrido[4,3-b]indoles” (Pfizer Inc., priority 1980, dated 1981).

Where a name gives a salt, the structure may show the parent alone. Read-outs that look alike come from different tables or passages of the source. Bounds are passed on as bounds.

Sequence of dopamine receptors (P61169 whole entry): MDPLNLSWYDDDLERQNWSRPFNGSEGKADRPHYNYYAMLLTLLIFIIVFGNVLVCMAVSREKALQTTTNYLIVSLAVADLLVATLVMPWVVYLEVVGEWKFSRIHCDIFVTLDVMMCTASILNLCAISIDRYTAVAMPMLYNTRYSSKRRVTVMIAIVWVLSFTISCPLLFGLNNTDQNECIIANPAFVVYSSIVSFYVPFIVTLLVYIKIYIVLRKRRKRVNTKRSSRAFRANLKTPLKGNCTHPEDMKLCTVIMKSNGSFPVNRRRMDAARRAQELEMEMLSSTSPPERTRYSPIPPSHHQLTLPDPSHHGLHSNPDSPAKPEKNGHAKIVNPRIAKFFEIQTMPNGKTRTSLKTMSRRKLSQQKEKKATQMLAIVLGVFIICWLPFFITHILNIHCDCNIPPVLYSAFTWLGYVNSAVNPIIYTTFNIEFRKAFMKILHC

As for `c1ccc(CN2CC[C@@H]3[C@@H](C2)c2ccccc2N3c2ccccc2)cc1` (relative stereo) [X1=H, Y1=H, R=C6 H5 CH2, dl-trans-2-benzyl-2,3,4,4a,5,9b-hexahydro-5-phenyl-1H-pyrido-[4,3-b]indole Hydrochloride, reference compound], the ED50 in assay [1] (setting [2]) was ~10 mg/kg; in assay [1] (setting [3]), 3.2 to 32 mg/kg; in assay [1] (setting [4]), > 3.2 mg/kg.
For the compound `OC(CCCN1CC[C@@H]2[C@@H](C1)c1ccccc1N2c1ccccc1)c1ccccc1` (relative stereo), the ED50 in assay [1] (setting [5]) fell in the range of 0.032 to 0.1 mg/kg; in assay [1] (setting [6]) it was 0.032 to 0.1 mg/kg; in assay [1] (setting [7]), 0.1 to 0.32 mg/kg; in assay [1] (setting [2]), 0.032 to 0.1 mg/kg; in assay [1] (setting [3]), 0.032 to 0.1 mg/kg; in assay [1] (setting [4]), 0.1 to 0.32 mg/kg.
For the compound `O=C(CCCN1CC[C@@H]2[C@@H](C1)c1ccccc1N2c1ccccc1)c1ccc(F)cc1` (relative stereo), the ED50 in assay [1] (setting [3]) lay within 0.1 to 0.32 mg/kg.
Take `O=C(CCCN1CC[C@@H]2[C@@H](C1)c1cc(F)ccc1N2c1ccc(F)cc1)c1ccc(F)cc1` (relative stereo): the ED50 in assay [1] (setting [5]), in assay [1] (setting [6]), in assay [1] (setting [7]), in assay [1] (setting [2]), in assay [1] (setting [3]) and in assay [1] (setting [4]) was < 1 mg/kg in each case.
What is called IC50 is the concentration at which inhibition is half-maximal. With `OC(CCCN1CCC2C(C1)c1cc(F)ccc1N2c1ccc(F)cc1)c1ccc(F)cc1` (single isomer, unassigned) [β, 8-fluoro-5-(p-fluorophenyl)-2-[4-hydroxy-4-(p-fluorophenyl)butyl]-2,3,4,4a,5,9b-hexahydro-1H-pyrido[4,3-b]indole hydrochloride], the IC50 at dopamine receptors amounted to 1.8 µM.
On to `c1ccc(N2c3ccccc3[C@@H]3CNCC[C@H]32)cc1` (relative stereo) [X1=H, Y1=H, R=H, dl-trans-5-Phenyl-2,3,4,4a,5,9b-hexahydro-1H-pyrido[4,3-b]indole, reference compound], for which the ED50 in assay [1] (setting [8]) was 3.2 to 32 mg/kg; in assay [1] (setting [9]), > 3.2 mg/kg; in assay [1] (sc, 24 h, read-out: ED50 (mg./kg.) 24 Hrs.), > 32 mg/kg.
`c1ccc(CCCN2CC[C@@H]3[C@@H](C2)c2ccccc2N3c2ccccc2)cc1` (relative stereo) [X1=H, Y1=H, R=C6 H5 (CH2)3, reference compound]: the values for the ED50 in assay [1] (setting [2]), in assay [1] (setting [3]) and in assay [1] (setting [4]) were 3.2 to 10 mg/kg, 3.2 to 10 mg/kg and > 10 mg/kg, respectively.
Take `OC(CCCN1CC[C@@H]2[C@@H](C1)c1cc(F)ccc1N2c1ccc(F)cc1)c1ccc(F)cc1` (relative stereo) [drawing 38]: the ED50 lay in the range of 0.032 to 0.1 mg/kg in assay [1] (setting [5]); 0.032 to 0.1 mg/kg in assay [1] (setting [6]); 0.032 to 0.1 mg/kg in assay [1] (setting [7]); 0.1 to 0.32 mg/kg in assay [1] (ip, 48 h, Part B, 48 hrs, i.p., read-out: ED50 (mg./kg.) 48 Hrs.); 0.32 to 1 mg/kg in assay [1] (po, 1 h, Part B, 1 hr, p.o., read-out: ED50 (mg./kg.) 1 Hr.); 0.1 to 0.32 mg/kg in assay [1] (po, 5 h, Part B, 5 hrs, p.o., read-out: ED50 (mg./kg.) 5 Hrs.). Further, the ED50 was 0.1 to 0.32 mg/kg in assay [1] (po, 24 h, Part B, 24 hrs, p.o., read-out: ED50 (mg./kg.) 24 Hrs.) and 0.032 to 0.1 mg/kg in assay [1] (setting [2]).
Turning to `OC(CCCN1CC[C@@H]2[C@@H](C1)c1cc(F)ccc1N2c1ccc(F)cc1)c1ccccc1` (relative stereo), the figures for the ED50 in assay [1] (setting [2]), in assay [1] (setting [3]) and in assay [1] (setting [4]) were 0.1 to 0.32 mg/kg, 0.1 to 0.32 mg/kg and < 0.32 mg/kg, respectively.
For the compound `OC(CCCN1CCC2C(C1)c1cc(F)ccc1N2c1ccc(F)cc1)c1ccc(F)cc1` (single isomer, unassigned) [α, 8-fluoro-5-(p-fluorophenyl)-2-[4-hydroxy-4-(p-fluorophenyl)butyl]-2,3,4,4a,5,9b-hexahydro-1H-pyrido[4,3-b]indole], in assay [1] (Part C, 1 hr, s.c. (method)), the “ED50 (micrograms/kilograms) 1 Hr.” value was 120 micrograms/kilograms. For the same compound, the “ED50 (micrograms/kilograms) 5 Hrs.” value in assay [1] (Part C, 5 hrs, s.c. (method)) is 32-100 micrograms/kilograms. In assay [1] (Part C, 24 hrs, s.c. (method)), the “ED50 (micrograms/kilograms) 24 Hrs.” value is 32-100 micrograms/kilograms. Also, in assay [1] (1 hr), the “ED50 (mg./kg.) 1 Hr.” value was found to be 0.023 mg/kg. Also, the “ED50 (mg./kg.) 5 Hrs.” value in assay [1] (5 hrs) was determined as 0.014 mg/kg. Moreover, the “ED50 (mg./kg.) 24 Hrs.” value in assay [1] (24 hrs) was determined as 0.033 mg/kg. In assay [1], the “ED50 (mg./kg.) 72 Hrs.” value is > 10 mg/kg.
Regarding `OC(CCCN1CC[C@@H]2[C@@H](C1)c1cc(F)ccc1N2c1ccc(F)cc1)c1ccc(F)cc1` (relative stereo) [αβγδ, dl-trans-8-Fluoro-5-(p-fluorophenyl)-2-[4-hydroxy-4-(p-fluorophenyl)butyl]-2,3,4,4a,5,9b-hexahydro-1H-pyrido[4,3-b]indole hydrochloride], on dopamine receptors, the IC50 was determined as 0.021 µM. Further, the ED50 in assay [1] (sc, 1 h, Part C, 1 hr, s.c. (method), read-out: ED50 (micrograms/kilograms) 1 Hr.) is 0.032 to 0.1 mg/kg; in assay [1] (sc, 5 h, Part C, 5 hrs, s.c. (method), read-out: ED50 (micrograms/kilograms) 5 Hrs.), 0.032 to 0.1 mg/kg; in assay [1] (sc, 24 h, Part C, 24 hrs, s.c. (method), read-out: ED50 (micrograms/kilograms) 24 Hrs.), 0.032 to 0.1 mg/kg.
On to `OC(CCCN1CC[C@@H]2[C@@H](C1)c1ccccc1N2c1ccccc1)c1ccc(F)cc1` (relative stereo), for which the ED50 in assay [1] (setting [2]), in assay [1] (setting [3]) and in assay [1] (setting [4]) was 0.1 to 0.32 mg/kg each time.
On to `OC(CCCN1CCC2C(C1)c1cc(F)ccc1N2c1ccc(F)cc1)c1ccc(F)cc1` (single isomer, unassigned) [γ, 8-fluoro-5-(p-fluorophenyl)-2-[4-hydroxy-4-(p-fluorophenyl)butyl]-2,3,4,4a,5,9b-hexahydro-1H-pyrido[4,3-b]indole], for which, in assay [1] (Part C, 1 hr, s.c. (method)), the “ED50 (micrograms/kilograms) 1 Hr.” value turned out to be 180 micrograms/kilograms. In addition, in assay [1] (Part C, 5 hrs, s.c. (method)), the “ED50 (micrograms/kilograms) 5 Hrs.” value is 32-100 micrograms/kilograms. Besides, the “ED50 (micrograms/kilograms) 24 Hrs.” value in assay [1] (Part C, 24 hrs, s.c. (method)) is on record as 32-100 micrograms/kilograms. Also, in assay [1] (1 hr), the “ED50 (mg./kg.) 1 Hr.” value worked out at 0.178 mg/kg. In assay [1] (5 hrs), the “ED50 (mg./kg.) 5 Hrs.” value is 0.045 mg/kg. Further, the “ED50 (mg./kg.) 24 Hrs.” value in assay [1] (24 hrs) turned out to be 0.018 mg/kg. Besides, in assay [1] (48 hrs), the “ED50 (mg./kg.) 48 Hrs.” value is listed as “ca. 1 mg./kg”. For the same compound, the “ED50 (mg./kg.) 72 Hrs.” value in assay [1] is > 1 mg/kg.
Take `COc1ccc(C(O)CCCN2CCC3C(C2)c2ccccc2N3c2ccccc2)cc1` (stereo not shown): the results for the ED50 in assay [1] (setting [2]), in assay [1] (setting [3]) and in assay [1] (setting [4]) were 0.1 to 0.32 mg/kg, 0.1 to 0.32 mg/kg and ~1 mg/kg, respectively.
For the compound `OC(CCCN1CC[C@@H]2[C@@H](C1)c1cc(F)ccc1N2c1ccc(F)cc1)c1ccc(F)cc1` (relative stereo) [αβ, dl trans-8-fluoro-5-(p-fluorophenyl)-2-[4-hydroxy-4-(p-fluorophenyl)butyl]-2,3,4,4a,5,9b-hexahydro-1H-pyrido[4,3-b]indole], the IC50 at dopamine receptors was 0.023 µM.
In the case of `OC(CCCN1CCC2C(C1)c1cc(F)ccc1N2c1ccc(F)cc1)c1ccc(F)cc1` (single isomer, unassigned) [δ, 8-fluoro-5-(p-fluorophenyl)-2-[4-hydroxy-4-(p-fluorophenyl)butyl]-2,3,4,4a,5,9b-hexahydro-1H-pyrido[4,3-b]indole], the “ED50 (micrograms/kilograms) 1 Hr.” value in assay [1] (Part C, 1 hr, s.c. (method)) is > 1000 micrograms/kilograms. Further, the “ED50 (micrograms/kilograms) 5 Hrs.” value in assay [1] (Part C, 5 hrs, s.c. (method)) worked out at 560 micrograms/kilograms. Further, the “ED50 (micrograms/kilograms) 24 Hrs.” value in assay [1] (Part C, 24 hrs, s.c. (method)) is 320-1000 micrograms/kilograms. In addition, the “ED50 (mg./kg.) 1 Hr.” value in assay [1] (1 hr) was > 10 mg/kg. Also, in assay [1] (5 hrs), the “ED50 (mg./kg.) 5 Hrs.” value worked out at 5.7 mg/kg. Further, the “ED50 (mg./kg.) 24 Hrs.” value in assay [1] (24 hrs) is > 10 mg/kg. For the same compound, the “ED50 (mg./kg.) 48 Hrs.” value in assay [1] (48 hrs) was > 10 mg/kg. Besides, the “ED50 (mg./kg.) 72 Hrs.” value in assay [1] is > 10 mg/kg.
`CCN1CCC2C(C1)c1ccccc1N2c1ccccc1` (stereo not shown) [X1=H, Y1=H, R=C2 H5, reference compound]: the ED50 in assay [1] (setting [8]) is ~1 mg/kg; in assay [1] (setting [9]), > 3.2 mg/kg.
